According to patent US10800791B2, “Triazole ACC inhibitors and uses thereof” (Gilead Apollo, LLC, priority 2015, dated 2020):
In brackets after ≈: the same amount, converted by molar mass. Like-named read-outs stand apart in the source and are kept apart here.

Assays:
[1] = tested on: Fusarium moniliforme (Fm); assay: Growth inhibition assay of fungal pathogens, Fm; format: cell-based; settings: for IC90: Fusarium verticillioides, 48 h, read-out: Concentration at 90% Inhibition Fm
How it was run: (§1)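 Spores diluted in 17% V8 liquid media and incubated with compound at final 50, 10, 2 ppm or 2, 0.4, 0.08 ppm (2% DMSO). OD600 plus visual ratings at 24 and 48 hours, blank-subtracted; percent growth inhibition from 48 h readings relative to 2% DMSO control.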

[2] = tested on: Septoria tritici (St); assay: Growth inhibition assay of fungal pathogens, St; format: cell-based; settings: Zymoseptoria tritici, 48 h
How it was run: as §1

[3] = tested on: Diplodia maydis (Dm); assay: Growth inhibition assay of fungal pathogens, Dm; format: cell-based; settings: Stenocarpella maydis, 48 h
How it was run: as §1

[4] = tested on: C. krusei; assay: Antifungal Activity Assay (broth microtiter MIC), C. krusei; format: cell-based, Candida krusei; settings: Pichia kudriavzevii, ATCC6258, 48 h
How it was run: (§2)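 CLSI M27-A3 microdilution; RPMI 1640+MOPS; 2.5×10^3 CFU/mL final inoculum; cultures from Sabouraud dextrose agar, 35° C overnight; compound working solution 128 μg/mL from 1 mg/mL DMSO stock; visual MIC at 48 h vs growth control.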

[5] = tested on: C. albicans; assay: Antifungal Activity Assay (broth microtiter MIC), C. albicans; format: cell-based, Candida albicans; settings: Candida albicans, ATCC90028, 48 h
How it was run: as §2

[6] = tested on: C. parapsilosis; assay: Antifungal Activity Assay (broth microtiter MIC), C. parapsilosis; format: cell-based, Candida parapsilosis; settings: Lodderomyces parapsilosis, ATCC22019, 48 h
How it was run: as §2

[7] = tested on: Collectotrichum graminicola (Cg); assay: Growth inhibition assay of fungal pathogens, Cg; format: cell-based; settings: 48 h
How it was run: as §1

[8] = tested on: Botrtyis cinerea (Bc); assay: Growth inhibition assay of fungal pathogens, Bc; format: cell-based; settings: 48 h
How it was run: as §1

[9] = tested on: Fusarium virguliforme (Fv); assay: Growth inhibition assay of fungal pathogens, Fv; format: cell-based; settings: 48 h
How it was run: as §1

[10] = tested on: Phytophthora capsici (Pc); assay: Growth inhibition assay of fungal pathogens, Pc; format: cell-based; settings: 48 h
How it was run: as §1

[11] = Fusarium moniliforme, growth inhibition at 48 hours vs 2% DMSO control
[12] = Fusarium moniliforme, growth inhibition vs 2% DMSO control at 48 hours
[13] = Septoria tritici, growth inhibition at 48 hours vs 2% DMSO control, read-out: Concentration at 90% Inhibition St
[14] = Septoria tritici, growth inhibition vs 2% DMSO control at 48 hours, read-out: Concentration at 90% Inhibition St
[15] = Diplodia maydis, growth inhibition at 48 hours vs 2% DMSO control, read-out: Concentration at 90% Inhibition Dm
[16] = Diplodia maydis, growth inhibition vs 2% DMSO control at 48 hours, read-out: Concentration at 90% Inhibition Dm
[17] = Table 3a, ATCC 6258, 3 replicates, MIC recorded at 48 h, read-out: MIC, C. krusei ATCC 6258
[18] = Table 3b (additional results), ATCC 6258, 3 replicates, MIC recorded at 48 h, read-out: MIC, C. krusei ATCC 6258
[19] = Table 3a, ATCC 90028, 3 replicates, MIC recorded at 48 h, read-out: MIC, C. albicans ATCC 90028
[20] = Table 3b (additional results), ATCC 90028, 3 replicates, MIC recorded at 48 h, read-out: MIC, C. albicans ATCC 90028
[21] = Table 3a, ATCC 22019, 3 replicates, MIC recorded at 48 h, read-out: MIC, C. parapsilosis ATCC 22019
[22] = Table 3b (additional results), ATCC 22019, 3 replicates, MIC recorded at 48 h, read-out: MIC, C. parapsilosis ATCC 22019
[23] = Collectotrichum graminicola, growth inhibition at 48 hours vs 2% DMSO control, read-out: Concentration at 90% Inhibition Cg
[24] = Collectotrichum graminicola, growth inhibition vs 2% DMSO control at 48 hours, read-out: Concentration at 90% Inhibition Cg
[25] = Botrtyis cinerea, growth inhibition at 48 hours vs 2% DMSO control, read-out: Concentration at 90% Inhibition Bc
[26] = Botrtyis cinerea, growth inhibition vs 2% DMSO control at 48 hours, read-out: Concentration at 90% Inhibition Bc
[27] = growth inhibition at 48 hours vs 2% DMSO control, read-out: Concentration at 90% Inhibition Fv
[28] = growth inhibition vs 2% DMSO control at 48 hours, read-out: Concentration at 90% Inhibition Fv
[29] = growth inhibition at 48 hours vs 2% DMSO control, read-out: Concentration at 90% Inhibition Pc
[30] = growth inhibition vs 2% DMSO control at 48 hours, read-out: Concentration at 90% Inhibition Pc

SMILES	IC90 [1, 11] [µg/mL]	IC90 [1, 12] [µg/mL]	IC90 [2, 13] [µg/mL]	IC90 [2, 14] [µg/mL]	IC90 [3, 15] [µg/mL]	IC90 [3, 16] [µg/mL]	MIC [4, 17] [µg/mL]	MIC [4, 18] [µg/mL]	MIC [5, 19] [µg/mL]	MIC [5, 20] [µg/mL]	MIC [6, 21] [µg/mL]	MIC [6, 22] [µg/mL]	IC90 [7, 23] [µg/mL]	IC90 [7, 24] [µg/mL]	IC90 [8, 25] [µg/mL]	IC90 [8, 26] [µg/mL]	IC90 [9, 27] [µg/mL]	IC90 [9, 28] [µg/mL]	IC90 [10, 29] [µg/mL]	IC90 [10, 30] [µg/mL]	further results
COc1ccc(F)cc1[C@H](Cn1c(=O)n(C(C)(C)C(N)=O)c(=O)c2c(C)c(-n3nccn3)sc21)OCC(C)C [Compound I-8, (R)-2-(1-(2-(5-fluoro-2-methoxyphenyl)-2-isobutoxyethyl)-5-methyl-2,4-dioxo-6-(2H-1,2,3-triazol-2-yl)-1,4-dihydrothieno[2,3-d]pyrimidin-3(2H)-yl)-2-methylpropanamide]	0.08 (≈ 0.143 µM)	0.08 (≈ 0.143 µM)	> 50	> 50	2 (≈ 3.58 µM)	2 (≈ 3.58 µM)	1.1 to 2 (≈ 1.97 to 3.58 µM)	1.01 to 2 (≈ 1.81 to 3.58 µM)	1.1 to 2 (≈ 1.97 to 3.58 µM)	1.01 to 2 (≈ 1.81 to 3.58 µM)	2.1 to 4 (≈ 3.76 to 7.16 µM)	2.01 to 4 (≈ 3.6 to 7.16 µM)	2 (≈ 3.58 µM)	2 (≈ 3.58 µM)	2 (≈ 3.58 µM)	2 (≈ 3.58 µM)	2 (≈ 3.58 µM)	2 (≈ 3.58 µM)	> 50	> 50	
CCNC(=O)C(C)(C)n1c(=O)c2c(C)c(-n3nccn3)sc2n(C[C@H](OCC(C)C)c2cc(F)ccc2OC)c1=O [Compound I-9, (R)—N-ethyl-2-(1-(2-(5-fluoro-2-methoxyphenyl)-2-isobutoxyethyl)-5-methyl-2,4-dioxo-6-(2H-1,2,3-triazol-2-yl)-1,4-dihydrothieno[2,3-d]pyrimidin-3(2H)-yl)-2-methylpropanamide]	0.08 (≈ 0.136 µM)	0.08 (≈ 0.136 µM)	10 (≈ 17 µM)	> 50	0.4 (≈ 0.682 µM)	0.4 (≈ 0.682 µM)	0.25 to 1 (≈ 0.426 to 1.7 µM)	0.25 to 1 (≈ 0.426 to 1.7 µM)	2.1 to 4 (≈ 3.58 to 6.82 µM)	1.01 to 2 (≈ 1.72 to 3.41 µM)	2.1 to 4 (≈ 3.58 to 6.82 µM)	1.01 to 2 (≈ 1.72 to 3.41 µM)	0.4 (≈ 0.682 µM)	0.4 (≈ 0.682 µM)	0.4 (≈ 0.682 µM)	0.4 (≈ 0.682 µM)	0.4 (≈ 0.682 µM)	0.4 (≈ 0.682 µM)	> 50	> 50	
COc1ccc(F)cc1[C@H](Cn1c(=O)n(C(C)(C)C(=O)N2CCCCC2)c(=O)c2c(C)c(-n3nccn3)sc21)OCC(C)C [Compound I-11, (R)-1-(2-(5-fluoro-2-methoxyphenyl)-2-isobutoxyethyl)-5-methyl-3-(2-methyl-1-oxo-1-(piperidin-1-yl)propan-2-yl)-6-(2H-1,2,3-triazol-2-yl)thieno[2,3-d]pyrimidine-2,4(1H,3H)-dione]																					Concentration at 90% Inhibition Fm [1, 11]: AA (compound concentration of 0.08 ppm at 90% inhibition of fungal pathogens); IC90 [1]: 0.08 µg/mL (≈ 0.128 µM); IC90 ([2]; read-out: Concentration at 90% Inhibition St, Septoria tritici, growth inhibition at 48 hours vs 2% DMSO control): 10 µg/mL (≈ 16 µM); IC90 ([2]; read-out: Concentration at 90% Inhibition St, Septoria tritici, growth inhibition vs 2% DMSO control at 48 hours): > 50 µg/mL; IC90 ([3]; read-out: Concentration at 90% Inhibition Dm, Diplodia maydis, growth inhibition at 48 hours vs 2% DMSO control): 0.4 µg/mL (≈ 0.638 µM); IC90 ([3]; read-out: Concentration at 90% Inhibition Dm, Diplodia maydis, growth inhibition vs 2% DMSO control at 48 hours): 0.4 µg/mL (≈ 0.638 µM); MIC ([4]; read-out: MIC, C. krusei ATCC 6258, Table 3a, 3 replicates, MIC recorded at 48 h): 1.1 to 2 µg/mL (≈ 1.76 to 3.19 µM); MIC ([4]; read-out: MIC, C. krusei ATCC 6258, Table 3b (additional results), 3 replicates, MIC recorded at 48 h): 0.25 to 1 µg/mL (≈ 0.399 to 1.6 µM); MIC ([5]; read-out: MIC, C. albicans ATCC 90028, Table 3a, 3 replicates, MIC recorded at 48 h): 1.1 to 2 µg/mL (≈ 1.76 to 3.19 µM); MIC ([5]; read-out: MIC, C. albicans ATCC 90028, Table 3b (additional results), 3 replicates, MIC recorded at 48 h): 0.25 to 1 µg/mL (≈ 0.399 to 1.6 µM); MIC ([6]; read-out: MIC, C. parapsilosis ATCC 22019, Table 3a, 3 replicates, MIC recorded at 48 h): 1.1 to 2 µg/mL (≈ 1.76 to 3.19 µM); MIC ([6]; read-out: MIC, C. parapsilosis ATCC 22019, Table 3b (additional results), 3 replicates, MIC recorded at 48 h): 1.01 to 2 µg/mL (≈ 1.61 to 3.19 µM); IC90 ([7]; read-out: Concentration at 90% Inhibition Cg, Collectotrichum graminicola, growth inhibition at 48 hours vs 2% DMSO control): 0.4 µg/mL (≈ 0.638 µM); IC90 ([7]; read-out: Concentration at 90% Inhibition Cg, Collectotrichum graminicola, growth inhibition vs 2% DMSO control at 48 hours): 0.4 µg/mL (≈ 0.638 µM); IC90 ([8]; read-out: Concentration at 90% Inhibition Bc, Botrtyis cinerea, growth inhibition at 48 hours vs 2% DMSO control): 0.4 µg/mL (≈ 0.638 µM); IC90 ([8]; read-out: Concentration at 90% Inhibition Bc, Botrtyis cinerea, growth inhibition vs 2% DMSO control at 48 hours): 0.4 µg/mL (≈ 0.638 µM); IC90 ([9]; read-out: Concentration at 90% Inhibition Fv, Fusarium virguliforme, growth inhibition at 48 hours vs 2% DMSO control): 2 µg/mL (≈ 3.19 µM); IC90 ([9]; read-out: Concentration at 90% Inhibition Fv, Fusarium virguliforme, growth inhibition vs 2% DMSO control at 48 hours): 2 µg/mL (≈ 3.19 µM); IC90 ([10]; read-out: Concentration at 90% Inhibition Pc, Phytophthora capsici, growth inhibition at 48 hours vs 2% DMSO control): > 50 µg/mL; IC90 ([10]; read-out: Concentration at 90% Inhibition Pc, Phytophthora capsici, growth inhibition vs 2% DMSO control at 48 hours): > 50 µg/mL
